ChEMBL document CHEMBL1152688, “Bioorganic synthesis of a recombinant HIV-1 fusion inhibitor, SC35EK, with an N-terminal pyroglutamate capping group” (Bioorg Med Chem, 2009)
Non-standard residues stand in square brackets, D forms with d. Residues, ends and D or L forms follow the SMILES beside them. *: point of attachment. hSer(lactone) = O=C1OCC[C@@H]1N*; pGlu = O=C1CC[C@@H](C(=O)O)N1

Key:
[1] = test system: Human immunodeficiency virus 1; assay: Antiviral activity against HIV1 NL4-3 infected in human HeLa cells expressing CD4/CCR5-LTR-beta-gal genes assessed as blockade of viral infection by X-gal staining based MAGI method; type: functional, organism-based; conditions: Human immunodeficiency virus 1, NL4-3, HeLa
[2] = test system: Serum; assay: Stability in mouse serum assessed as compound degradation by LC-MS analysis; type: ADME, cell-free

Row | EC50 [1] [nM] | Stability [2] | Compound
1 | 2.43 | Unstable | H-WEEWDKKIEEYTKKIEELIKKSEEQQKKNEEELKK-OH
2 | 0.57 | Stable | CC[C@H](C)[C@H](NC(=O)[C@H](CC(C)C)NC(=O)[C@H](CCC(=O)O)NC(=O)[C@H](CCC(=O)O)NC(=O)[C@@H](NC(=O)[C@H](CCCCN)NC(=O)[C@H](CCCCN)NC(=O)[C@@H](NC(=O)[C@H](Cc1ccc(O)cc1)NC(=O)[C@H](CCC(=O)O)NC(=O)[C@H](CCC(=O)O)NC(=O)[C@@H](NC(=O)[C@H](CCCCN)NC(=O)[C@H](CCCCN)NC(=O)[C@H](CC(=O)O)NC(=O)[C@H](Cc1c[nH]c2ccccc12)NC(=O)[C@H](CCC(=O)O)NC(=O)[C@H](CCC(=O)O)NC(=O)[C@H](Cc1c[nH]c2ccccc12)NC(=O)[C@@H]1CCC(=O)N1)[C@@H](C)CC)[C@@H](C)O)[C@@H](C)CC)C(=O)N[C@@H](CCCCN)C(=O)N[C@@H](CCCCN)C(=O)N[C@@H](CO)C(=O)N[C@@H](CCC(=O)O)C(=O)N[C@@H](CCC(=O)O)C(=O)N[C@@H](CCC(N)=O)C(=O)N[C@@H](CCC(N)=O)C(=O)N[C@@H](CCCCN)C(=O)N[C@@H](CCCCN)C(=O)N[C@@H](CC(N)=O)C(=O)N[C@@H](CCC(=O)O)C(=O)N[C@@H](CCC(=O)O)C(=O)N[C@@H](CCC(=O)O)C(=O)N[C@@H](CC(C)C)C(=O)N[C@@H](CCCCN)C(=O)N[C@@H](CCCCN)C(=O)N[C@H]1CCOC1=O ([pGlu]WEEWDKKIEEYTKKIEELIKKSEEQQKKNEEELKK-{hSer(lactone)})
3 | 0.5 | Stable | Ac-WEEWDKKIEEYTKKIEELIKKSEEQQKKNEEELKK-NH2
